The values that follow come from patent US6589762B1, “Calcafluor screen for chitin biosynthesis inhibitors” (priority 1993, dated 2003).

Assay [1] deals with strain SSY638-3B (containing only Chs2). The experiment in a line: In vivo secondary screen, growth of chitin synthase mutant yeast. In kind it is cell-based, Saccharomyces cerevisiae. The text has this:
(§1) Especially preferred in vivo secondary screens employ a pair of genetically related strains, one producing one isozyme, e.g., Chs2, and the other producing a different isozyme, e.g., Chs3. Using pairs allows for the simultaneous determination that culture conditions are appropriate for growth in the absence of inhibition and the identification of which isozyme may be affected by inhibition. The pairs, for example, include the ECY36-3C and ECY36-3D strains described by Shaw, cited above, that produce only Chs3 and Chs 2, respectively, and similar pairs such as SSY640-10A (containing only Chs3) and SSY-638-3B (containing only Chs 2) described in the Examples below. […] In a similar manner, a comparison of differential effects observed in the growth of strain pairs in the presence of a test sample allows for the putative identification of which isozyme is affected by the sample.
(§2) In Vivo Secondary Screens. The in vivo calcofluor rescue secondary screens assay the differential effect of compounds on the growth of two pairs of yeast strains. Each strain in the pairs, denoted ECY36-3C and ECY36-3D and SSY640-10A and SSY638-3B, is a chitin synthase mutant that relies on the expression of a single chitin synthase isozyme for its survival.
(§3) Strain SSY640-10A has genotype chs1::HIS3, chs2::TRP1, his3, trp1, ade2, ade3, leu2, lys2, ura3 (possible cmk1Δ 1::HIS3). […]

Assay [2] has as its system strain SSY640-10A (containing only Chs3). The description is as above. In kind it is cell-based, Saccharomyces cerevisiae.
Excerpt: as §1, §2, §3

`C[C@@H]([C@H](N)C(=O)N[C@H](C(=O)O)[C@H]1O[C@@H](n2ccc(=O)[nH]c2=O)[C@H](O)[C@@H]1O)[C@H](O)c1ccc(O)cn1` [nikkomycin Z]: the “growth of strain SSY638-3B (in words)” value in assay [1] is “unaffected”. Also, the “growth of strain SSY640-10A (in words)” value in assay [2] was “inhibited”.
